Experiments:
Assay type in all cases: in vivo
[1] = system: ryegrass, Italian (Lolium multiflorum); experiment: Test A postemergence, Italian ryegrass; conditions: visual injury, 0 to 100 scale (0 no effect, 100 complete control), approximately 10 days
Outline: (§1)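 Visual injury on a 0 to 100 scale, about 10 days post-spray in the greenhouse. Postemergence plants measured 2–10 cm at one to two leaves; preemergence pots received a directed soil spray. Soil was a loam–sand blend.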

[2] = system: pigweed (Amaranthus retroflexus); experiment: Test A preemergence, pigweed; conditions: 0 to 100 scale (0 no effect, 100 complete control)
Outline: as §1

[3] = system: sedge, umbrella (small-flower umbrella sedge, Cyperus difformis); experiment: Test B flooded paddy test, umbrella sedge; conditions: 250 g ai/ha, applied to paddy water, visual rating after 13 to 15 days, scale 0 (no effect) to 100 (complete control)
Description: (§2) At time of treatment, test pots were flooded to 3 cm above the soil surface, treated by application of test compounds directly to the paddy water, and then maintained at that water depth for the duration of the test. Treated plants and controls were maintained in a greenhouse for 13 to 15 days, after which time all species were compared to controls and visually evaluated. […] A dash (-) response means no test result.

[4] = system: ryegrass, Italian (Lolium multiflorum); experiment: Test A preemergence, Italian ryegrass; conditions: 0 to 100 scale (0 no effect, 100 complete control)
Outline: as §1

rice (Oryza sativa) = experiment: Test B flooded paddy test, rice; conditions: 250 g ai/ha, applied to paddy water, visual rating after 13 to 15 days, scale 0 (no effect) to 100 (complete control)
Description: as §2

[5] = system: ragweed (common ragweed, Ambrosia elatior); experiment: Test A postemergence, ragweed; conditions: visual injury, 0 to 100 scale (0 no effect, 100 complete control), approximately 10 days
Outline: as §1

[6] = system: pigweed (Amaranthus retroflexus); experiment: Test A postemergence, pigweed; conditions: visual injury, 0 to 100 scale (0 no effect, 100 complete control), approximately 10 days
Outline: as §1

[7] = system: ragweed (common ragweed, Ambrosia elatior); experiment: Test A preemergence, ragweed; conditions: 0 to 100 scale (0 no effect, 100 complete control)
Outline: as §1

[8] = system: foxtail, giant (Setaria faberii); experiment: Test A preemergence, giant foxtail; conditions: 0 to 100 scale (0 no effect, 100 complete control)
Outline: as §1

corn (Zea mays) = experiment: Test A postemergence, corn; conditions: visual injury, 0 to 100 scale (0 no effect, 100 complete control), approximately 10 days
Outline: as §1

[9] = system: blackgrass (Alopecurus myosuroides); experiment: Test A postemergence, blackgrass; conditions: visual injury, 0 to 100 scale (0 no effect, 100 complete control), approximately 10 days
Outline: as §1

kochia (Kochia scoparia) = experiment: Test A preemergence, kochia; conditions: 0 to 100 scale (0 no effect, 100 complete control)
Outline: as §1

[10] = system: barnyardgrass (Echinochloa crus-galli); experiment: Test A postemergence, barnyardgrass; conditions: visual injury, 0 to 100 scale (0 no effect, 100 complete control), approximately 10 days
Outline: as §1

[11] = system: barnyardgrass (Echinochloa crus-galli); experiment: Test A preemergence, barnyardgrass; conditions: 0 to 100 scale (0 no effect, 100 complete control)
Outline: as §1

[12] = system: wheat (Triticum aestivum); experiment: Test A postemergence, wheat; conditions: visual injury, 0 to 100 scale (0 no effect, 100 complete control), approximately 10 days
Outline: as §1

[13] = system: foxtail, giant (Setaria faberii); experiment: Test A postemergence, giant foxtail; conditions: visual injury, 0 to 100 scale (0 no effect, 100 complete control), approximately 10 days
Outline: as §1

[14] = system: galium (catchweed bedstraw, Galium aparine); experiment: Test A postemergence, galium; conditions: visual injury, 0 to 100 scale (0 no effect, 100 complete control), approximately 10 days
Outline: as §1

[15] = system: ducksalad (Heteranthera limosa); experiment: Test B flooded paddy test, ducksalad; conditions: 250 g ai/ha, applied to paddy water, visual rating after 13 to 15 days, scale 0 (no effect) to 100 (complete control)
Description: as §2

[16] = system: barnyardgrass (Echinochloa crus-galli); experiment: Test B flooded paddy test, barnyardgrass; conditions: 250 g ai/ha, applied to paddy water, visual rating after 13 to 15 days, scale 0 (no effect) to 100 (complete control)
Description: as §2

## CN1CC(c2cccc(Oc3ccc(F)cn3)c2)C(C(=O)Nc2ccccc2F)C1=O (single isomer, unassigned) [Compound 60]
[1]; 125 g ai/ha
  Plant response rating, Ryegrass, Italian: 30
[1]; 500 g ai/ha
  Plant response rating, Ryegrass, Italian: 50
[2]; 125 g ai/ha
  Plant response rating, Pigweed: 60
[2]; 500 g ai/ha
  Plant response rating, Pigweed: 50
[3]
  Plant response rating, Sedge, Umbrella (Flood): 0
[4]; 125 g ai/ha
  Plant response rating, Ryegrass, Italian: 20
[4]; 500 g ai/ha
  Plant response rating, Ryegrass, Italian: 70
Rice (Oryza sativa)
  Plant response rating, Rice (Flood): 0
[5]; 125 g ai/ha
  Plant response rating, Ragweed: 0
[5]; 500 g ai/ha
  Plant response rating, Ragweed: 40
[6]; 125 g ai/ha
  Plant response rating, Pigweed: 0
[6]; 500 g ai/ha
  Plant response rating, Pigweed: 40
[7]; 125 g ai/ha
  Plant response rating, Ragweed: 40
[7]; 500 g ai/ha
  Plant response rating, Ragweed: 50
[8]; 125 g ai/ha
  Plant response rating, Foxtail, Giant: 90
[8]; 500 g ai/ha
  Plant response rating, Foxtail, Giant: 90
Corn (Zea mays); 125 g ai/ha
  Plant response rating, Corn: 30
Corn (Zea mays); 500 g ai/ha
  Plant response rating, Corn: 50
[9]; 125 g ai/ha
  Plant response rating, Blackgrass: 0
[9]; 500 g ai/ha
  Plant response rating, Blackgrass: 30
Kochia (Kochia scoparia); 125 g ai/ha
  Plant response rating, Kochia: 70
Kochia (Kochia scoparia); 500 g ai/ha
  Plant response rating, Kochia: 80
[10]; 125 g ai/ha
  Plant response rating, Barnyardgrass: 70
[10]; 500 g ai/ha
  Plant response rating, Barnyardgrass: 90
[11]; 125 g ai/ha
  Plant response rating, Barnyardgrass: 90
[11]; 500 g ai/ha
  Plant response rating, Barnyardgrass: 90
[12]; 125 g ai/ha
  Plant response rating, Wheat: 0
[12]; 500 g ai/ha
  Plant response rating, Wheat: 70
[13]; 125 g ai/ha
  Plant response rating, Foxtail, Giant: 80
[13]; 500 g ai/ha
  Plant response rating, Foxtail, Giant: 90
[14]; 125 g ai/ha
  Plant response rating, Galium: 30
[14]; 500 g ai/ha
  Plant response rating, Galium: 60
[15]
  Plant response rating, Ducksalad (Flood): 100
[16]
  Plant response rating, Barnyardgrass (Flood): 65

## CN1CC(c2cccc(Oc3ccc(F)cn3)c2)C(C(=O)Nc2cccc(F)c2F)C1=O (single isomer, unassigned) [Compound 61]
[1]; 125 g ai/ha
  Plant response rating, Ryegrass, Italian: 70
[1]; 500 g ai/ha
  Plant response rating, Ryegrass, Italian: 70
[2]; 125 g ai/ha
  Plant response rating, Pigweed: 70
[2]; 500 g ai/ha
  Plant response rating, Pigweed: 90
[3]
  Plant response rating, Sedge, Umbrella (Flood): 0
[4]; 125 g ai/ha
  Plant response rating, Ryegrass, Italian: 80
[4]; 500 g ai/ha
  Plant response rating, Ryegrass, Italian: 90
Rice (Oryza sativa)
  Plant response rating, Rice (Flood): 0
[5]; 125 g ai/ha
  Plant response rating, Ragweed: 40
[5]; 500 g ai/ha
  Plant response rating, Ragweed: 50
[6]; 125 g ai/ha
  Plant response rating, Pigweed: 40
[6]; 500 g ai/ha
  Plant response rating, Pigweed: 70
[7]; 125 g ai/ha
  Plant response rating, Ragweed: 30
[7]; 500 g ai/ha
  Plant response rating, Ragweed: 60
[8]; 125 g ai/ha
  Plant response rating, Foxtail, Giant: 90
[8]; 500 g ai/ha
  Plant response rating, Foxtail, Giant: 90
Corn (Zea mays); 125 g ai/ha
  Plant response rating, Corn: 70
Corn (Zea mays); 500 g ai/ha
  Plant response rating, Corn: 90
[9]; 125 g ai/ha
  Plant response rating, Blackgrass: 40
[9]; 500 g ai/ha
  Plant response rating, Blackgrass: 50
Kochia (Kochia scoparia); 125 g ai/ha
  Plant response rating, Kochia: 60
Kochia (Kochia scoparia); 500 g ai/ha
  Plant response rating, Kochia: 80
[10]; 125 g ai/ha
  Plant response rating, Barnyardgrass: 70
[10]; 500 g ai/ha
  Plant response rating, Barnyardgrass: 80
[11]; 125 g ai/ha
  Plant response rating, Barnyardgrass: 90
[11]; 500 g ai/ha
  Plant response rating, Barnyardgrass: 90
[12]; 125 g ai/ha
  Plant response rating, Wheat: 50
[12]; 500 g ai/ha
  Plant response rating, Wheat: 80
[13]; 125 g ai/ha
  Plant response rating, Foxtail, Giant: 90
[13]; 500 g ai/ha
  Plant response rating, Foxtail, Giant: 90
[14]; 125 g ai/ha
  Plant response rating, Galium: 60
[14]; 500 g ai/ha
  Plant response rating, Galium: 70
[15]
  Plant response rating, Ducksalad (Flood): 100
[16]
  Plant response rating, Barnyardgrass (Flood): 40

## O=C1NCC(c2cccc(Oc3ccc(C(F)(F)F)cn3)c2)C1C(=O)Nc1ccccc1F (single isomer, unassigned) [Compound 62]
[1]; 125 g ai/ha
  Plant response rating, Ryegrass, Italian: 0
[1]; 500 g ai/ha
  Plant response rating, Ryegrass, Italian: 30
[2]; 125 g ai/ha
  Plant response rating, Pigweed: 30
[2]; 500 g ai/ha
  Plant response rating, Pigweed: 50
[3]
  Plant response rating, Sedge, Umbrella (Flood): 0
[4]; 125 g ai/ha
  Plant response rating, Ryegrass, Italian: 0
[4]; 500 g ai/ha
  Plant response rating, Ryegrass, Italian: 20
Rice (Oryza sativa)
  Plant response rating, Rice (Flood): 20
[5]; 125 g ai/ha
  Plant response rating, Ragweed: 0
[5]; 500 g ai/ha
  Plant response rating, Ragweed: 40
[6]; 125 g ai/ha
  Plant response rating, Pigweed: 0
[6]; 500 g ai/ha
  Plant response rating, Pigweed: 30
[7]; 125 g ai/ha
  Plant response rating, Ragweed: 0
[7]; 500 g ai/ha
  Plant response rating, Ragweed: 50
[8]; 125 g ai/ha
  Plant response rating, Foxtail, Giant: 90
[8]; 500 g ai/ha
  Plant response rating, Foxtail, Giant: 90
Corn (Zea mays); 125 g ai/ha
  Plant response rating, Corn: 30
Corn (Zea mays); 500 g ai/ha
  Plant response rating, Corn: 30
[9]; 125 g ai/ha
  Plant response rating, Blackgrass: 0
[9]; 500 g ai/ha
  Plant response rating, Blackgrass: 30
Kochia (Kochia scoparia); 125 g ai/ha
  Plant response rating, Kochia: 30
Kochia (Kochia scoparia); 500 g ai/ha
  Plant response rating, Kochia: 60
[10]; 125 g ai/ha
  Plant response rating, Barnyardgrass: 70
[10]; 500 g ai/ha
  Plant response rating, Barnyardgrass: 90
[11]; 125 g ai/ha
  Plant response rating, Barnyardgrass: 90
[11]; 500 g ai/ha
  Plant response rating, Barnyardgrass: 90
[12]; 125 g ai/ha
  Plant response rating, Wheat: 0
[12]; 500 g ai/ha
  Plant response rating, Wheat: 30
[13]; 125 g ai/ha
  Plant response rating, Foxtail, Giant: 80
[13]; 500 g ai/ha
  Plant response rating, Foxtail, Giant: 90
[14]; 125 g ai/ha
  Plant response rating, Galium: 30
[14]; 500 g ai/ha
  Plant response rating, Galium: 60
[15]
  Plant response rating, Ducksalad (Flood): 100
[16]
  Plant response rating, Barnyardgrass (Flood): 40
